System: human breast milk-fed infants
Experiment: Regression association of breast milk HMO levels with IBQ-R negative affectivity in infants
Format: in vivo
Procedure: In some embodiments, social-emotional skills are determined by an Infant Behavior Questionnaire (IBQ), such as the IBQ-Revised (IBQ-R). The “IBQ-R (revised Infant Behavior Questionnaire) questionnaire” is a widely used parent-report measure for assessing dimensions of temperament along 14 scales, as reported below, in infants between 3 and 12 months of age (see e.g. Gartstein, M. A. and Rothbart, M. K., 2003. Infant behavior and development, 26(1), pp. 64-86).
The subject's negative affectivity can be determined by any suitable method. In some embodiments, the subject's negative affectivity is determined by an Infant Behavior Questionnaire (IBQ), for example the IBQ-Revised (IBQ-R). For example, negative affectivity may be a domain constructed out of the following scales on the IBQ-R: sadness, fear, distress to limitations, activity level, and falling reactivity. The one or more HMOs according to the present invention may reduce sadness, fear, and/or distress to limitations. The one or more HMOs according to the present invention may improve activity level and/or rate of recovery from distress.
A total of 195 infants were tested. Breastmilk HMO levels were tested in breastmilk collected at two months and three months. Infant behaviours were assessed with an Infant Behaviour Questionnaire-Revised (IBQ-R). […]

How did the IBQR (breast milk collected at 2 months, negative affectivity of infants at 9 months, N=195) turn out when Lacto-N-difucohexaose I [LNDFHI] was run?
The IBQR was “Reduced”.

What about the “association with negative emotions in infants” value (infants at 9 months, breast milk HMO levels) of the same substance?
Its value is “associated with reduction in negative emotions”.
